Reference: ChEMBL document CHEMBL5365478, “Structure-Based Design and Synthesis of Stapled 10Panx1 Analogues for Use in Cardiovascular Inflammatory Diseases” (J Med Chem, 2023)
Calls of active or inactive are those of the source. No cut-off for these calls is given here. Bridge positions count the residues as written; N and C are the ends. Square brackets hold non-standard residues; d marks the D form. Triazole bridges read from a SMILES are 1,4-linked. Peptide text beside a SMILES is read from it. Lys(N3) = [N-]=[N+]=NCCCC[C@H](N)C(=O)O; Orn(N3) = [N-]=[N+]=NCCC[C@H](N)C(=O)O; Hpra = C#CCC[C@H](N)C(=O)O; Pra = C#CC[C@H](N)C(=O)O; Ahx = NCCCCCC(=O)O

Legend:
[1] = biological target: Pannexin-1 (Mus musculus) (UniProt Q9JIP4); test: Inhibition of PANX1 in mouse B16-BL6 cells assessed as reduction in HOS-induced ATP release at 100 uM preincubated for 10 mins followed by HOS solution addition and measured after 30 mins by bioluminescence analysis; assay type: cell-based; details: time 40.0 min
Pannexin-1 (Mus musculus), sequence (Q9JIP4 whole entry): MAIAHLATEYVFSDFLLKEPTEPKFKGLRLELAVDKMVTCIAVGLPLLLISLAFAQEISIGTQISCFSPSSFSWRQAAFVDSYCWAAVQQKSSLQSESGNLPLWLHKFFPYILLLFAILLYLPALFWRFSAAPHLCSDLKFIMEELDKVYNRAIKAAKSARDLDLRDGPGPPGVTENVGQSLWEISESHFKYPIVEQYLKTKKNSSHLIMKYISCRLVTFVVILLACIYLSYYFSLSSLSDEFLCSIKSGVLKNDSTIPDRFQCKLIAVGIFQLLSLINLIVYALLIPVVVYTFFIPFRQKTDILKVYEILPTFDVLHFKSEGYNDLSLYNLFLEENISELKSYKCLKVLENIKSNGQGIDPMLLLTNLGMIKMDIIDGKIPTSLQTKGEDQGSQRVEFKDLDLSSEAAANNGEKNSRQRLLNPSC

B16-BL6 [2] = test: Cytotoxicity against mouse B16-BL6 cells at 1.56 to 100 uM incubated for 30 mins with compound in HOS solution by LDH assay; assay type: toxicity, cell-based; details: b16-bl6, 0.5 h, dose 1.56-100 µM
[3] = biological target: Pannexin-1 (Homo sapiens) (UniProt Q96RD7); test: Inhibition of PANX1 in human EA.hy 926 cells assessed as reduction in HOS-induced ATP release preincubated for 10 mins followed by HOS solution addition and measured after 30 mins by bioluminescence analysis; assay type: cell-based; details: time 40.0 min
Pannexin-1 (Homo sapiens), sequence (Q96RD7 whole entry): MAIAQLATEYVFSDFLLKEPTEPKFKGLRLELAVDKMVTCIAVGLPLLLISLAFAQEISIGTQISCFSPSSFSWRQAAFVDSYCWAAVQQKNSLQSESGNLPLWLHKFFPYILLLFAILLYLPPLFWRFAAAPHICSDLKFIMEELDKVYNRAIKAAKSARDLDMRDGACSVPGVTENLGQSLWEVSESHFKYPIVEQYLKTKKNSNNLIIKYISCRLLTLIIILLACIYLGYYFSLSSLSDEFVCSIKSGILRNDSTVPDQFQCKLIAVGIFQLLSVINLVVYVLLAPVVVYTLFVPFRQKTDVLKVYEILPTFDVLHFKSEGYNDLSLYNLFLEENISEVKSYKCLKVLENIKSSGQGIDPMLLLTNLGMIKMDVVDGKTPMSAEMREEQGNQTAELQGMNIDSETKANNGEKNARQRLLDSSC

[4] = biological target: Pannexin-1 (Mus musculus) (UniProt Q9JIP4); test: Inhibition of PANX1 in mouse B16-BL6 cells assessed as reduction in HOS-induced ATP release at around 10 nM preincubated for 10 mins followed by HOS solution addition and measured after 30 mins by bioluminescence analysis; assay type: cell-based; details: time 40.0 min
EA.hy 926 [5] = test: Antiinflammatory activity in TNF-alpha stimulated human EA.hy926 cells cocultured with human THP-1 cells assessed as inhibition of monocyte adhesion at 100 uM incubated for 15 mins followed by adhesion for 2 hrs; assay type: functional, cell-based; details: time 135.0 min
B16-BL6 [6] = test: Cytotoxicity against mouse B16-BL6 cells at 6.25 to 100 uM incubated for 30 mins with compound in HOS solution by LDH assay; assay type: toxicity, cell-based; details: b16-bl6, 0.5 h, dose 6.25-100 µM
[7] = biological target: Pannexin-1 (Mus musculus) (UniProt Q9JIP4); test: Inhibition of PANX1 in mouse B16-BL6 cells assessed as reduction in HOS-induced ATP release preincubated for 10 mins followed by HOS solution addition and measured after 30 mins by bioluminescence analysis; assay type: cell-based; details: dose 6.25-400 µM, time 40.0 min
EA.hy 926 [8] = test: Cytotoxicity against human EA.hy 926 cells at 12.5 to 100 uM incubated for 30 mins with compound in HOS solution by LDH assay; assay type: toxicity, cell-based; details: ea.hy 926, 0.5 h, dose 12.5-100 µM
[9] = biological target: Pannexin-1 (Homo sapiens) (UniProt Q96RD7); test: Inhibition of PANX1 in human EA.hy 926 cells assessed as reduction in HOS-induced ATP release at 12.5 to 100 uM preincubated for 10 mins followed by HOS solution addition and measured after 30 mins by bioluminescence analysis; assay type: cell-based; details: dose 12.5-100 µM, time 40.0 min
[10] = biological target: Pannexin-1 (Mus musculus) (UniProt Q9JIP4); test: Inhibition of PANX1 in mouse B16-BL6 cells assessed as reduction in HOS-induced Yo-Pro-1 uptake by measuring reduction in green fluorescence at 12.5 uM preincubated for 10 mins followed by HOS solution addition and measured after 30 mins by fluorescence based analysis; assay type: cell-based; details: time 40.0 min
[11] = Stability in PBS at pH 7.4 assessed as conserved alpha-helical profile at 200 uM at 20 to 90 degreeC by CD spectra analysis; assay type: physicochemical; details: buffer, pH 7.4, 200 µM
[12] = biological target: Pannexin-1 (Rattus norvegicus) (UniProt P60570); test: Inhibition of PANX1 in rat H9C2 cells assessed as reduction in HOS-induced ATP release at 12.5 to 100 uM preincubated for 10 mins followed by HOS solution addition and measured after 30 mins by bioluminescence analysis; assay type: cell-based; details: dose 12.5-100 µM, time 40.0 min
Pannexin-1 (Rattus norvegicus), sequence (P60570 whole entry): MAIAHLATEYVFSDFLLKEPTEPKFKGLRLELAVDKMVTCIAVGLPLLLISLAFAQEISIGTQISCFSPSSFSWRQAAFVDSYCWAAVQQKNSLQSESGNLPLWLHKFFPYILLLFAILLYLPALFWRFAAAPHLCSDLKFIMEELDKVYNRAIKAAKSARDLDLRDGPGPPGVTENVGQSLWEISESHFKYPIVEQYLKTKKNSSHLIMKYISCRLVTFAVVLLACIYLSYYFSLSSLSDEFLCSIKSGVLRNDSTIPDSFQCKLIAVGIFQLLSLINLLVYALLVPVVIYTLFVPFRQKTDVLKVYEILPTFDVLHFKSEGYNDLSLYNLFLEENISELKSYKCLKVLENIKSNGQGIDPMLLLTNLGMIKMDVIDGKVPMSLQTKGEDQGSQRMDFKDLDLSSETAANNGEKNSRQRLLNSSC

B16-BL6 [13] = test: Cytotoxicity against mouse B16-BL6 cells at 2.5 mM incubated for 30 mins with compound in HOS solution by LDH assay; assay type: toxicity, cell-based; details: b16-bl6, 0.5 h, 2500 µM
[14] = biological target: Pannexin-1 (Mus musculus) (UniProt Q9JIP4); test: Inhibition of PANX1 in mouse B16-BL6 cells assessed as reduction in HOS-induced Yo-Pro-1 uptake by measuring reduction in green fluorescence at 2.5 mM preincubated for 10 mins followed by HOS solution addition and measured after 30 secs to 30 mins by fluorescence based analysis; assay type: cell-based; details: time 10.5-40 min
[15] = biological target: Pannexin-1 (Rattus norvegicus) (UniProt P60570); test: Inhibition of PANX1 in rat H9C2 cells assessed as reduction in HOS-induced ATP release at 2.5 mM preincubated for 10 mins followed by HOS solution addition and measured after 30 mins by bioluminescence analysis; assay type: cell-based; details: time 40.0 min
[16] = biological target: Pannexin-1 (Homo sapiens) (UniProt Q96RD7); test: Inhibition of PANX1 in human EA.hy 926 cells assessed as reduction in HOS-induced ATP release at 2.5 mM preincubated for 10 mins followed by HOS solution addition and measured after 30 mins by bioluminescence analysis; assay type: cell-based; details: time 40.0 min

CC(=O)N[C@H]1CCCCn2cc(nn2)C[C@@H](C(=O)N[C@@H](C)C(=O)N[C@@H](Cc2ccccc2)C(=O)N[C@H](C(=O)N[C@@H](CC(=O)O)C(=O)N[C@@H](CO)C(=O)N[C@@H](Cc2ccc(O)cc2)C(N)=O)C(C)C)NC(=O)[C@H](CCC(N)=O)NC(=O)[C@H](CCCNC(=N)N)NC(=O)[C@H](Cc2c[nH]c3ccccc23)NC1=O (Ac-[Lys(N3)]WRQ[Pra]AFVDSY-NH2; triazole 1-5)
inhibition [1]: Active
Activity (B16-BL6 [2]): Non-Toxic

CC(=O)N[C@@H](CO)C(=O)N[C@@H](Cc1c[nH]c2ccccc12)C(=O)N[C@@H](CCCNC(=N)N)C(=O)N[C@@H](CCC(N)=O)C(=O)N[C@@H](C)C(=O)N[C@H]1Cc2cn(nn2)CCC[C@@H](C(=O)N[C@@H](Cc2ccc(O)cc2)C(N)=O)NC(=O)[C@H](CC(=O)O)NC(=O)[C@H](C(C)C)NC(=O)[C@H](Cc2ccccc2)NC1=O (Ac-SWRQA[Pra]FVD[Orn(N3)]Y-NH2; triazole 6-10)
inhibition [1]: inactive

CC(=O)N[C@@H](CO)C(=O)N[C@@H](Cc1c[nH]c2ccccc12)C(=O)N[C@@H](CCCNC(=N)N)C(=O)N[C@@H](CCC(N)=O)C(=O)N[C@@H](C)C(=O)N[C@@H]1Cc2cn(nn2)CCCC[C@@H](C(=O)N[C@@H](Cc2ccc(O)cc2)C(N)=O)NC(=O)[C@H](CC(=O)O)NC(=O)[C@H](C(C)C)NC(=O)[C@H](Cc2ccccc2)NC1=O
inhibition [1]: inactive
Activity (B16-BL6 [2]): Non-Toxic

CC(=O)N[C@@H](CO)C(=O)N[C@@H](Cc1c[nH]c2ccccc12)C(=O)N[C@@H](CCCNC(=N)N)C(=O)N[C@@H](CCC(N)=O)C(=O)N[C@@H](C)C(=O)N[C@@H](C)C(=O)N[C@@H](Cc1ccccc1)C(=O)N[C@H]1Cc2cn(nn2)CCCC[C@@H](C(N)=O)NC(=O)[C@H](Cc2ccc(O)cc2)NC(=O)[C@H](CO)NC(=O)[C@H](CC(=O)O)NC1=O (Ac-SWRQAAF[Pra]DSY[Lys(N3)]-NH2; triazole 8-12)
inhibition [1]: inactive

CC(=O)N[C@@H](CO)C(=O)N[C@@H](Cc1c[nH]c2ccccc12)C(=O)N[C@@H](CCCNC(=N)N)C(=O)N[C@@H](CCC(N)=O)C(=O)N[C@@H](C)C(=O)N[C@H]1CCCCn2cc(nn2)C[C@@H](C(=O)N[C@@H](Cc2ccc(O)cc2)C(N)=O)NC(=O)[C@H](CC(=O)O)NC(=O)[C@H](C(C)C)NC(=O)[C@H](Cc2ccccc2)NC1=O (Ac-SWRQA[Lys(N3)]FVD[Pra]Y-NH2; triazole 6-10)
inhibition [1]: Active
Activity (B16-BL6 [2]): Non-Toxic

CC(=O)N[C@@H](CO)C(=O)N[C@@H](Cc1c[nH]c2ccccc12)C(=O)N[C@@H](CCCNC(=N)N)C(=O)N[C@@H](CCC(N)=O)C(=O)N[C@@H](C)C(=O)N[C@@H](C)C(=O)N[C@@H](Cc1ccccc1)C(=O)N[C@H]1Cc2cn(nn2)CCC[C@@H](C(N)=O)NC(=O)[C@H](Cc2ccc(O)cc2)NC(=O)[C@H](CO)NC(=O)[C@H](CC(=O)O)NC1=O (Ac-SWRQAAF[Pra]DSY[Orn(N3)]-NH2; triazole 8-12)
inhibition [1]: inactive

CC(C)[C@H](NC(=O)[C@H](Cc1ccccc1)NC(=O)[C@H](C)NC(=O)[C@H](C)NC(=O)[C@H](CCC(N)=O)NC(=O)[C@H](CCCNC(=N)N)NC(=O)[C@H](Cc1c[nH]c2ccccc12)NC(=O)CCCCCNC(=O)[C@@H](N)CCCCN)C(=O)N[C@@H](CC(=O)O)C(=O)N[C@@H](CO)C(=O)N[C@@H](Cc1ccc(O)cc1)C(=O)O (H-K[Ahx]WRQAAFVDSY-OH)
inhibition [3]: Active

CC(=O)N[C@@H](CO)C(=O)N[C@@H](Cc1c[nH]c2ccccc12)C(=O)N[C@@H](CCCNC(=N)N)C(=O)N[C@@H](CCC(N)=O)C(=O)N[C@@H](C)C(=O)N[C@H]1Cc2cn(nn2)CCCC[C@@H](C(=O)N[C@@H](Cc2ccc(O)cc2)C(N)=O)NC(=O)[C@H](CC(=O)O)NC(=O)[C@H](C(C)C)NC(=O)[C@H](Cc2ccccc2)NC1=O
inhibition [4]: inactive
inhibition (EA.hy 926 [5]): Active
Activity (B16-BL6 [6]): Non-Toxic
inhibition [7]: Dose-Dependent Effect
Activity (EA.hy 926 [8]): Non-Toxic
inhibition [9]: Active
inhibition [10]: inactive
Stability [11]: Stable
inhibition [12]: inactive

CC(=O)N[C@H]1CCc2cn(nn2)CCCC[C@@H](C(=O)N[C@@H](C)C(=O)N[C@@H](Cc2ccccc2)C(=O)N[C@H](C(=O)N[C@@H](CC(=O)O)C(=O)N[C@@H](CO)C(=O)N[C@@H](Cc2ccc(O)cc2)C(N)=O)C(C)C)NC(=O)[C@H](CCC(N)=O)NC(=O)[C@H](CCCNC(=N)N)NC(=O)[C@H](Cc2c[nH]c3ccccc23)NC1=O (Ac-[Hpra]WRQ[Lys(N3)]AFVDSY-NH2; triazole 1-5)
inhibition [1]: Active
Activity (B16-BL6 [2]): Non-Toxic

CC(=O)N[C@@H](CO)C(=O)N[C@@H](Cc1c[nH]c2ccccc12)C(=O)N[C@@H](CCCNC(=N)N)C(=O)N[C@@H](CCC(N)=O)C(=O)N[C@@H](C)C(=O)N[C@@H](C)C(=O)N[C@H]1Cc2cn(nn2)CCCC[C@@H](C(=O)O)NC(=O)[C@H](CO)NC(=O)[C@H](CC(=O)O)NC(=O)[C@H](C(C)C)NC1=O (Ac-SWRQAA[Pra]VDS[Lys(N3)]-OH; triazole 7-11)
inhibition [1]: inactive

CC(=O)N[C@H]1Cc2cn(nn2)CCC[C@@H](C(=O)N[C@@H](C)C(=O)N[C@@H](Cc2ccccc2)C(=O)N[C@H](C(=O)N[C@@H](CC(=O)O)C(=O)N[C@@H](CO)C(=O)N[C@@H](Cc2ccc(O)cc2)C(N)=O)C(C)C)NC(=O)[C@H](CCC(N)=O)NC(=O)[C@H](CCCNC(=N)N)NC(=O)[C@H](Cc2c[nH]c3ccccc23)NC1=O (Ac-[Pra]WRQ[Orn(N3)]AFVDSY-NH2; triazole 1-5)
inhibition [1]: inactive

CC(=O)N[C@H]1Cc2cn(nn2)CCCC[C@H](C(=O)N[C@@H](C)C(=O)N[C@@H](Cc2ccccc2)C(=O)N[C@H](C(=O)N[C@@H](CC(=O)O)C(=O)N[C@@H](CO)C(=O)N[C@@H](Cc2ccc(O)cc2)C(N)=O)C(C)C)NC(=O)[C@H](CCC(N)=O)NC(=O)[C@H](CCCNC(=N)N)NC(=O)[C@H](Cc2c[nH]c3ccccc23)NC1=O
inhibition [1]: inactive
Activity (B16-BL6 [2]): Non-Toxic

CCCN(CCC)S(=O)(=O)c1ccc(C(=O)O)cc1 [PROBENECID]
Activity (B16-BL6 [13]): Non-Toxic
inhibition [14]: Active
inhibition [15]: inactive
inhibition [16]: Active

CC(=O)N[C@@H](CO)C(=O)N[C@@H](Cc1c[nH]c2ccccc12)C(=O)N[C@@H](CCCNC(=N)N)C(=O)N[C@@H](CCC(N)=O)C(=O)N[C@@H](C)C(=O)N[C@H]1CCc2cn(nn2)CCCC[C@@H](C(=O)N[C@@H](Cc2ccc(O)cc2)C(N)=O)NC(=O)[C@H](CC(=O)O)NC(=O)[C@H](C(C)C)NC(=O)[C@H](Cc2ccccc2)NC1=O (Ac-SWRQA[Hpra]FVD[Lys(N3)]Y-NH2; triazole 6-10)
inhibition [1]: Active
Activity (B16-BL6 [2]): Non-Toxic

CC(=O)N[C@H]1Cc2cn(nn2)CCCC[C@@H](C(=O)N[C@@H](C)C(=O)N[C@@H](Cc2ccccc2)C(=O)N[C@H](C(=O)N[C@@H](CC(=O)O)C(=O)N[C@@H](CO)C(=O)N[C@@H](Cc2ccc(O)cc2)C(N)=O)C(C)C)NC(=O)[C@H](CCC(N)=O)NC(=O)[C@H](CCCNC(=N)N)NC(=O)[C@H](Cc2c[nH]c3ccccc23)NC1=O
inhibition (EA.hy 926 [5]): Active
Activity (B16-BL6 [6]): Non-Toxic
inhibition [7]: Dose-Dependent Effect
Activity (EA.hy 926 [8]): Non-Toxic
inhibition [9]: Active
inhibition [10]: inactive
inhibition [12]: inactive
